Read-outs that look alike come from different tables or passages of the source.
Tests used:
[1] = tested on: patients with heart failure; assay type: in vivo, human patients; set-up: key to Severity After, Score: summed symptom/sign points; higher = worse heart failure; settings: for Severity After, Score / Severity After, NYHA: 2 g twice daily, granules
Experimental: Twenty-four patients with heart failure were administered every day, two doses containing 2 g each of taurine as granules, and then monitored. The underlying cause of heart failure and the combined therapeutic agents (+: combined, -: not combined) for each patient are shown in Table 2. The therapeutic agents combined with taurine were standard agents which have long been used. Most of the patients had not been improved or have been even worsened under the therapeutic agents in Table 2, prior to the new therapeutic modality of this invention being used. The severity of heart failure was expressed by NYHA Function Class (I to IV, mild to severe according to New York Heart Association) and a score based on observation of clinical symptoms and signs as shown in Table 3. The presence of a symptom or sign was given the point value indicated in the right column and the values for each of the symptoms and signs were summed up for the score. An increase in the score corresponds to a worsening in the patient's heart condition. […]

[2] = Acute toxicity in Wistar male mice; assay type: in vivo
Experimental: Each of 10 Wistar male mice, weighing 16-18 g, was administered with 7 g/kg of taurine (as an aqueous solution of 100 ml/kg).

guinea pigs = settings: Dietrich & Diacono 1971; cited from earlier work
[3] = 7 g/kg as aqueous solution 100 ml/kg, 7 days observation, route not given

NCCS(=O)(=O)O [taurine, 2-aminoethanesulfonic acid]
adverse reaction ([1]; human, in vivo): without any adverse reaction | Severity After, Score ([1]; patient 1, week 20, before 7.5, with digitalis): 2 | Severity After, NYHA ([1]; patient 1, week 20, before II, with digitalis): I | Severity After, Score ([1]; patient 2, week 4, before 6.5, with digitalis, diuretics): 6.5 | Severity After, Score ([1]; patient 3, week 8, before 13, with digitalis, diuretics): 5 | Severity After, Score ([1]; patient 4, week 32, before 12, with digitalis, diuretics, vasodilators): 2.5 | Severity After, NYHA ([1]; patient 4, week 32, before III, with digitalis, diuretics, vasodilators): I | Severity After, Score ([1]; patient 5, week 8, before 10, with digitalis, diuretics): 2.5 | Severity After, Score ([1]; patient 6, week 8, before 5, no combined agent): 2.5 | Severity After, Score ([1]; patient 7, week 8, before 6, with digitalis, diuretics): 3 | Severity After, Score ([1]; patient 8, week 4, before 6, with digitalis, diuretics): 5 | Severity After, Score ([1]; patient 9, week 4, before 4, no combined agent): 3 | Severity After, Score ([1]; patient 10, week 4, before 9.5, with diuretics, vasodilators): 5 | Severity After, Score ([1]; patient 11, week 6, before 9.5, with diuretics, vasodilators): 6 | Severity After, Score ([1]; patient 12, week 2, before 3.5, no combined agent): 3.5 | Severity After, Score ([1]; patient 13, week 2, before 8.5, with diuretics): 7.5 | Severity After, Score ([1]; patient 14, week 2, before 3.5, with diuretics): 3 | Severity After, Score ([1]; patient 15, week 4, before 4.5, with diuretics): 1 | Severity After, Score ([1]; patient 16, week 4, before 5, with digitalis, diuretics, vasodilators): 0.5 | Severity After, Score ([1]; patient 17, week 4, before 9, with digitalis, diuretics): 1 | Severity After, Score ([1]; patient 18, week 4, before 13, with digitalis, diuretics): 9 | Severity After, Score ([1]; patient 19, week 4, before 5.5, with digitalis, diuretics): 4.5 | Severity After, Score ([1]; patient 20, week 2, before 5, with diuretics): 3 | Severity After, Score ([1]; patient 21, week 4, before 9.5, combined agent ambiguous (none / diuretics)): 4 | Severity After, Score ([1]; patient 22, week 4, before 4.5, with diuretics): 3 | Severity After, Score ([1]; patient 23, week 4, before 5.5, no combined agent): 5.5 | Severity After, Score ([1]; patient 24, week 4, before 9, with digitalis, diuretics): 4 | improvement with combined use of taurine ([1]; patients not controllable or worsened under prolonged conventional agents): unexpectedly improved | subjective symptoms and objective signs of heart failure ([1]; patients with heart failure, general statement): effectively ameliorates the subjective symptoms and objective signs of heart failure | behavioral changes [2, 3]: nor behavioral changes | death [2, 3]: neither death | death and behavioral changes ([2]; intravenous, same results = neither death nor behavioral changes): the same results were obtained | positive inotropic activity (guinea pigs): positive inotropic activity

— US4565830A, “Method of ameliorating the subjective symptoms and objective signs in congestive heart failure” (priority 1981, dated 1986)
